In brackets after ≈: the same amount, converted by molar mass. Where two headings read alike, the source gives them in different places.
Tests used:
[1] = tested on: P. aeruginosa 659; test: MIC, twofold microdilution, clinical strain; assay type: cell-based; details: Pseudomonas aeruginosa, 18 h
[2] = tested on: P. aeruginosa 37; test: MIC, twofold microdilution, clinical strain; assay type: cell-based; details: Pseudomonas aeruginosa, 18 h
[3] = tested on: S. aureus 5595; test: MIC, twofold microdilution, clinical strain; assay type: cell-based; details: Staphylococcus aureus, 18 h
[4] = tested on: Staphylococci (standard strains); test: MIC, standard Gram-positive strains as a panel; assay type: cell-based, S. aureus, S. epidermidis; details: read-out: MIC toward standard Staphylococci (range over strains)
[5] = tested on: S. aureus 180; test: MIC, twofold microdilution, clinical strain; assay type: cell-based; details: Staphylococcus aureus, 18 h
[6] = tested on: E. coli 520; test: MIC, twofold microdilution, clinical strain; assay type: cell-based; details: Escherichia coli, 18 h
[7] = tested on: S. aureus ATCC 25923; test: MIC, twofold microdilution, standard strain; assay type: cell-based; details: Staphylococcus aureus, ATCC25923, 18 h
[8] = tested on: S. epidermidis KR4243/1; test: MIC, twofold microdilution, clinical strain; assay type: cell-based; details: Staphylococcus epidermidis, 18 h
[9] = tested on: S. epidermidis 4341; test: MIC, twofold microdilution, clinical strain; assay type: cell-based; details: Staphylococcus epidermidis, 18 h
[10] = MTT assay, cytotoxic activity; assay type: cell-based; details: human, HaCaT cells (immortal keratinocytes); MTT, 72 h, normal cell line; read-out: IC50 HaCaT
Protocol: (§1) Cells were seeded in 6 mL medium in a tissue culture flask (50 mL) in a 37 °C/5% CO2 humidified incubator. […] MTT analysis was performed according to a previous study.[59] Untreated cells were used as controls. Cell absorbance results were inserted into the formula for the relative MTT level (%). It allows to calculate the viability of cells under the influence of the tested compounds. Cell viability was expressed as the percentage of MTT reduction in cells treated with tested compounds compared to the control sample. The relative MTT level was calculated using the formula [100%] = A/B × 100% where A—the test sample absorbance and B—the control sample absorbance.

[11] = tested on: M. tuberculosis Spec 210; test: microbe, parasite or virus in culture; assay type: cell-based, Mycobacterium tuberculosis; details: M. tuberculosis Spec. 210
[12] = tested on: M. tuberculosis H37Rv; test: Tuberculostatic activity, Microplate Alamar Blue Assay (MIC); assay type: cell-based, Mycobacterium tuberculosis; details: Mycobacterium tuberculosis, H37RV; MABA; read-out: MIC M. tuberculosis H37Rv
[13] = tested on: S. epidermidis ATCC 35984; test: MIC, twofold microdilution, standard strain; assay type: cell-based; details: Staphylococcus epidermidis, ATCC35984, 18 h
[14] = tested on: S. epidermidis ATCC 12228; test: MIC, twofold microdilution, standard strain; assay type: cell-based; details: Staphylococcus epidermidis, ATCC12228, 18 h
[15] = tested on: S. aureus NCTC 4163; test: MIC, twofold microdilution, standard strain; assay type: cell-based; details: Staphylococcus aureus, NCTC4163, 18 h
[16] = tested on: E. coli ATCC 25922; test: MIC, twofold microdilution, standard strain; assay type: cell-based, Escherichia coli; details: Escherichia coli, ATCC25922; standard strain, 18 h
[17] = tested on: M. tuberculosis Spec. 192; test: Tuberculostatic activity, Microplate Alamar Blue Assay (MIC); assay type: cell-based; details: Mycobacterium tuberculosis, MABA, read-out: MIC M. tuberculosis Spec. 192 (sensitive to tuberculostatics)
[18] = tested on: E. coli 600; test: MIC, twofold microdilution, clinical strain; assay type: cell-based, Escherichia coli; details: Escherichia coli, 600, 18 h
[19] = tested on: S. aureus ATCC 6538; test: MIC, twofold microdilution, standard strain; assay type: cell-based, Staphylococcus aureus; details: Staphylococcus aureus, ATCC6538; standard strain, 18 h
[20] = tested on: S. epidermidis 5253; test: MIC, twofold microdilution, clinical strain; assay type: cell-based, Staphylococcus epidermidis; details: for MIC S. epidermidis 5253: 18 h; for MIC: Staphylococcus epidermidis, 5253, 18 h
[21] = tested on: S. aureus ATCC 29213; test: MIC, twofold microdilution, standard strain; assay type: cell-based; details: Staphylococcus aureus, ATCC29213, 18 h
[22] = tested on: E. cloacae 8; test: MIC, twofold microdilution, clinical strain; assay type: cell-based, Escherichia cloacae; details: Enterobacter cloacae, 8; clinical strain, 18 h
[23] = tested on: S. aureus T5591; test: MIC, twofold microdilution, clinical strain; assay type: cell-based, Staphylococcus aureus; details: for MIC: Staphylococcus aureus, T5591, 18 h
[24] = tested on: PC3 cells; test: MTT assay, cytotoxic activity; assay type: cell-based, human; details: Homo sapiens, PC-3, 72 h, MTT, 72 h
Protocol: as §1, with “Metastatic prostate cancer (PC3) and human immortal keratinocyte (HaCaT) cell lines were purchased from the American Type Culture Collection (ATCC, Rockville, MD, USA) and cultured in MEM (minimal essential medium, Thermo Sci, USA), RPMI 1640 (Roswell Park Memorial Institute, Biowest SAS, France), and DMEM (Dulbecco’s Modified Eagle’s Medium, Biowest SAS, France). Cells” for “Cells”

[25] = tested on: K. pneumoniae 28; test: MIC, twofold microdilution, clinical strain; assay type: cell-based; details: Klebsiella pneumoniae, 18 h
[26] = tested on: E. coli 951; test: MIC, twofold microdilution, clinical strain; assay type: cell-based; details: Escherichia coli, 18 h
[27] = tested on: clinical bacterial strains; test: MIC, clinical isolates as groups of strains; assay type: cell-based; details: for fold more effective than CP: S. aureus 180 and 5595; for MIC: clinical strains, read-out: MIC against selected E. coli and E. cloacae strains
[28] = tested on: K. pneumoniae 510; test: MIC, twofold microdilution, clinical strain; assay type: cell-based, Klebsiella pneumoniae; details: Klebsiella pneumoniae, 510; clinical strain, 18 h
[29] = tested on: S. aureus T5595; test: MIC, twofold microdilution, clinical strain; assay type: cell-based, Staphylococcus aureus; details: for MIC: Staphylococcus aureus, T5595, 18 h
[30] = tested on: P. aeruginosa ATCC 15442; test: MIC, twofold microdilution, standard strain; assay type: cell-based, Pseudomonas aeruginosa; details: Pseudomonas aeruginosa, ATCC15442; standard strain, 18 h
[31] = tested on: S. pasteuri KR 4358; test: MIC, twofold microdilution, clinical strain; assay type: cell-based; details: Staphylococcus pasteuri, KR4358, 18 h
[32] = tested on: P. aeruginosa ATCC 15442 and E. coli ATCC 25922; test: MIC, standard Gram-negative rods as a panel; assay type: cell-based; details: P. aeruginosa ATCC 15442, E. coli ATCC 25922; read-out: MIC against standard Gram-negative rods (range over strains)
[33] = molecular target: T1, S. aureus topoisomerase IV (Staphylococcus aureus, UniProt P0C1S7+P0C1U9); test: Topoisomerase IV decatenation assay; assay type: biochemical; details: decatenation of kinetoplast DNA; read-out: IC50 S. aureus topoisomerase IV (converted)
T1 construct: purchased Inspiralis, Norwich, UK
T1 sequence (P0C1U9 whole entry): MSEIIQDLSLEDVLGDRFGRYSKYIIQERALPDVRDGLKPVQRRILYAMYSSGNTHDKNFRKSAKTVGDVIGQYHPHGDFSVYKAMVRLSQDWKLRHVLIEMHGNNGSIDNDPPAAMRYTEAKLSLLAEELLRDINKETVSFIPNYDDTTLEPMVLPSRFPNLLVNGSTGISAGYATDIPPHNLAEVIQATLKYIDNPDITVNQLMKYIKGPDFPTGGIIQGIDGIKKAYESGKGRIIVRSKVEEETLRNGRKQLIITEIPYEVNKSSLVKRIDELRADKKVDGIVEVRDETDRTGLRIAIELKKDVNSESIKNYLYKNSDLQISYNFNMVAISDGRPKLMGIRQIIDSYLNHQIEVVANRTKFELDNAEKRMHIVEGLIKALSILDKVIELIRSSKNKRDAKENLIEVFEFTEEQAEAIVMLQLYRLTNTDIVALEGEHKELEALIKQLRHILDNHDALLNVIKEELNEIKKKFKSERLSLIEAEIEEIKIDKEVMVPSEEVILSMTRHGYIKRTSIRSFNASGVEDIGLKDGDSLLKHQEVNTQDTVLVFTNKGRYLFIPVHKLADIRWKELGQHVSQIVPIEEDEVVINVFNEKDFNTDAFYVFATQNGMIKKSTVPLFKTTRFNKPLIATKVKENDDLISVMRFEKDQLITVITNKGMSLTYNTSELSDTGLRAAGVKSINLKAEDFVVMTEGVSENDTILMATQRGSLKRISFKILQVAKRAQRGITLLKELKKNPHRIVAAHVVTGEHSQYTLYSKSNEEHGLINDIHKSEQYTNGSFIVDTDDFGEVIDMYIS
T1 sequence (P0C1S7 whole entry): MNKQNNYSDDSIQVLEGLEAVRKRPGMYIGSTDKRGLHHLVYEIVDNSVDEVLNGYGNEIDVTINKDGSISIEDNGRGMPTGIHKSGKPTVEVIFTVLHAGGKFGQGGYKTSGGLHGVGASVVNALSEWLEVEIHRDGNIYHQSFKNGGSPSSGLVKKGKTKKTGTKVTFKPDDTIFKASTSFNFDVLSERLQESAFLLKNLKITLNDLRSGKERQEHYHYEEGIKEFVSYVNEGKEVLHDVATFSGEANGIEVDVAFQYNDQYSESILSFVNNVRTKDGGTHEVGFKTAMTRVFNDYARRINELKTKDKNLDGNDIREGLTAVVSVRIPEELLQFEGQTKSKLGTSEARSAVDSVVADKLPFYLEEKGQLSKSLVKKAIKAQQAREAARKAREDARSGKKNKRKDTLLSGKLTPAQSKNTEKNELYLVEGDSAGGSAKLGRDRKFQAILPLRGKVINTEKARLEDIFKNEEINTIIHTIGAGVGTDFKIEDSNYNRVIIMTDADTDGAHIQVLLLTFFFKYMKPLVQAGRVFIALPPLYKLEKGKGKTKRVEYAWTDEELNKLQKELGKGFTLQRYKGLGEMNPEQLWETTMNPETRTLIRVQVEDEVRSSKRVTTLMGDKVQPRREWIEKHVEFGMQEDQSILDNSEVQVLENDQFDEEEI
Protocol: Briefly, 1 U of the enzyme (gyrase or topo IV, Inspiralis. Norwich, UK) isolated from S. aureus converts 0.5 mg of relaxed pBR322 DNA to the supercoiled form (gyrase) or decatenates 200 ng of kinetoplast DNA (topo IV). […] The reactions were terminated by adding an equal volume of STEB buffer (40% sucrose, 100 mM Tris–HCl pH 8, 10 mM EDTA, and 0.5 mg/mL bromophenol blue), followed by extraction with 1 volume of chloroform/isoamyl alcohol (24:1). The samples were vortexed and centrifuged, and 20 μL of the aqueous phase of each sample was loaded onto a 1% agarose gel and left for 30 min prior to electrophoresis to allow diffusion of salt. […] Gels were stained with ethidium bromide and visualized under UV light in a transilluminator (ChemiDoc MP, Bio Rad).

[34] = molecular target: S. aureus DNA gyrase (Staphylococcus aureus, UniProt P0A0K8+P20831); test: biochemical; details: supercoiling of relaxed pBR322
Sequence of S. aureus DNA gyrase (P0A0K8 whole entry): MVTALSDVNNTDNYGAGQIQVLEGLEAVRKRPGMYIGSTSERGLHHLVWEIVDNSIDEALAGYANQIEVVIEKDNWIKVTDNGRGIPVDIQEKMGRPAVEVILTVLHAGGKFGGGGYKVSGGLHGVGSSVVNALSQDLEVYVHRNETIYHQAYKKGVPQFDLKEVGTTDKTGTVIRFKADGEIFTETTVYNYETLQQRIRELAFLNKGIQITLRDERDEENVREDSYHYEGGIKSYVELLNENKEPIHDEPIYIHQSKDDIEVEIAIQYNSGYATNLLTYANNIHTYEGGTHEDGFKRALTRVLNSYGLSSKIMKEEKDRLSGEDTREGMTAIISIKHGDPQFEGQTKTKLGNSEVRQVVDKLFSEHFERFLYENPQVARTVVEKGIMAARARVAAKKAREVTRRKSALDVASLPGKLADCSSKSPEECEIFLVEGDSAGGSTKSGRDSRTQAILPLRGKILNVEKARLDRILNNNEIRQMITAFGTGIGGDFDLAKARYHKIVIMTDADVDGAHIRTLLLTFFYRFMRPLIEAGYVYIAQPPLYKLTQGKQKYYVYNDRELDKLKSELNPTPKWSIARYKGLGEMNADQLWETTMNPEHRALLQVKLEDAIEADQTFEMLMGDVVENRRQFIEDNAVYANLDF
Sequence of S. aureus DNA gyrase (P20831 whole entry): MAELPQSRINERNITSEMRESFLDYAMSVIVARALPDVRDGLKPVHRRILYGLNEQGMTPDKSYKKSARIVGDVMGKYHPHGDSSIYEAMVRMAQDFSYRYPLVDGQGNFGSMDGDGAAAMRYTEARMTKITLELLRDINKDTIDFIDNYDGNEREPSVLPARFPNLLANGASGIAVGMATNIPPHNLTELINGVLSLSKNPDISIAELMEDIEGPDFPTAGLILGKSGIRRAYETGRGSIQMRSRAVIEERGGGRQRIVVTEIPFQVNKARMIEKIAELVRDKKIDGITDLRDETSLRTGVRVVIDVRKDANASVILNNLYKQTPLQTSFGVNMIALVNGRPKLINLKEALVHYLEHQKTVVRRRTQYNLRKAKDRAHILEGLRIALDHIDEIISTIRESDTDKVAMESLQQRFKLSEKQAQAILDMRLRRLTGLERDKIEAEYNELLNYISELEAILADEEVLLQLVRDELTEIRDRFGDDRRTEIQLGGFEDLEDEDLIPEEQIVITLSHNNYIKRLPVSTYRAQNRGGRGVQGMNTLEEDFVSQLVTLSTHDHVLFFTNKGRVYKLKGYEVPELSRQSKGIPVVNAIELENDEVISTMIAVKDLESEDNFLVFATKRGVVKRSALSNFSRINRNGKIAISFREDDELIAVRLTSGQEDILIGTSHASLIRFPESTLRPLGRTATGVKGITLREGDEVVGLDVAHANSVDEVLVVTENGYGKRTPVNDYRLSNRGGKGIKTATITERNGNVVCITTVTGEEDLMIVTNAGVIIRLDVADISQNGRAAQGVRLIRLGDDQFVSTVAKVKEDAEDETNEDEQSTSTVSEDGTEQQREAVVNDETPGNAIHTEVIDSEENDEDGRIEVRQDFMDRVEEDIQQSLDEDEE
Protocol: The enzymatic assay was carried using commercial topoisomerases type II as previously described by Alt et al.[55] with some modifications.
Briefly, 1 U of the enzyme (gyrase or topo IV, Inspiralis. Norwich, UK) isolated from S. aureus converts […] of relaxed pBR322 DNA to the supercoiled form (gyrase) or decatenates 200 ng of kinetoplast DNA (topo IV). […] The reactions were terminated by adding an equal volume of STEB buffer (40% sucrose, 100 mM Tris–HCl pH 8, 10 mM EDTA, and 0.5 mg/mL bromophenol blue), followed by extraction with 1 volume of chloroform/isoamyl alcohol (24:1). The samples were vortexed and centrifuged, and 20 μL of the aqueous phase of each sample was loaded onto a 1% agarose gel and left for 30 min prior to electrophoresis to allow diffusion of salt. […] Gels were stained with ethidium bromide and visualized under UV light in a transilluminator (ChemiDoc MP, Bio Rad).

For `O=C(O)c1cn(C2CC2)c2cc(N3CCN(C(=O)CCCl)CC3)c(F)cc2c1=O` [Compound 4, 7-[4-(3-Chloropropionyl)-piperazin-1-yl]-1-cyclopropyl-6-fluoro-4-oxo-1,4-dihydro-quinoline-3-carboxylic Acid], the MIC [1] was > 25.6 µg/mL, the MIC [2] was > 25.6 µg/mL and the MIC [3] was 0.2 µg/mL (≈ 0.474 µM). For the same compound, the MIC ([4]; standard Gram-positive strains of Table 1) was 0.1 to 0.8 µg/mL (≈ 0.237 to 1.9 µM), the MIC [5] was 0.2 µg/mL (≈ 0.474 µM) and the MIC [6] was 0.8 µg/mL (≈ 1.9 µM). It also gave an MIC [7] of 0.4 µg/mL (≈ 0.948 µM), an MIC [8] of 0.2 µg/mL (≈ 0.474 µM) and an MIC [9] of 6.4 µg/mL (≈ 15.2 µM). For the same compound, the IC50 at 72 h [10] was > 100 µM, the “fold more effective than the reference tuberculostatics” value [11] was 8–32 fold and the MIC [12] was 2 µg/mL (≈ 4.74 µM). For the same compound, the MIC [13] was 0.2 µg/mL (≈ 0.474 µM), the MIC [14] was 0.2 µg/mL (≈ 0.474 µM) and the MIC [15] was 0.2 µg/mL (≈ 0.474 µM). For the same compound, the MIC [16] was 3.2 µg/mL (≈ 7.59 µM), the MIC [17] was 1 µg/mL (≈ 2.37 µM) and the MIC [18] was 0.8 µg/mL (≈ 1.9 µM). The MIC [19] was 0.2 µg/mL (≈ 0.474 µM), the “MIC S. epidermidis 5253” value [20] was 25.6 µg/mL (≈ 60.7 µM) and the MIC [20] was 12.8 to 25.6 µg/mL (≈ 30.3 to 60.7 µM). It also gave an MIC [21] of 0.2 µg/mL (≈ 0.474 µM), an MIC [22] of 0.8 µg/mL (≈ 1.9 µM) and an MIC [23] of 0.4 µg/mL (≈ 0.948 µM). For the same compound, the IC50 [24] was 51.6 ± 8.1 µM, the MIC [25] was > 25.6 µg/mL and the MIC [26] was 25.6 µg/mL (≈ 60.7 µM). The “fold more effective than CP” value [27] was 2.5 fold, the “share of the reference (CP) activity” value ([27]; S. aureus T5595 and T5591) was 62.5% and the MIC [27] was 0.1 to 0.8 µg/mL (≈ 0.237 to 1.9 µM). The MIC [28] was > 25.6 µg/mL, the MIC [29] was 0.4 µg/mL (≈ 0.948 µM) and the MIC [30] was 12.8 µg/mL (≈ 30.3 µM). It also gave an MIC [31] of 0.2 µg/mL (≈ 0.474 µM).

`O=C(O)c1cn(C2CC2)c2cc(N3CCN(C(=O)CCCCCl)CC3)c(F)cc2c1=O` [Compound 6, 7-[4-(5-Chloropentanoyl)-piperazin-1-yl]-1-cyclopropyl-6-fluoro-4-oxo-1,4-dihydro-quinoline-3-carboxylic Acid] showed an MIC [1] of 12.8 µg/mL (≈ 28.5 µM), an MIC [2] of 6.4 µg/mL (≈ 14.2 µM) and an MIC [3] of 0.1 µg/mL (≈ 0.222 µM). It also gave an MIC [4] of 0.1 to 0.8 µg/mL (≈ 0.222 to 1.78 µM), an MIC [5] of 0.1 µg/mL (≈ 0.222 µM) and an MIC [6] of 0.4 µg/mL (≈ 0.889 µM). The MIC [7] was 0.2 µg/mL (≈ 0.445 µM), the MIC [8] was 0.2 µg/mL (≈ 0.445 µM) and the MIC [32] was ≤ 1 µg/mL. It also gave an IC50 [33] of 17.8 µM, an MIC [9] of 6.4 µg/mL (≈ 14.2 µM) and an IC50 at 72 h [10] of 19.7 ± 2.8 µM. For the same compound, the MIC [12] was 0.5 µg/mL (≈ 1.11 µM), the MIC [13] was 0.2 µg/mL (≈ 0.445 µM) and the MIC [14] was 0.2 µg/mL (≈ 0.445 µM). The MIC [15] was 0.2 µg/mL (≈ 0.445 µM), the MIC [16] was 0.2 µg/mL (≈ 0.445 µM) and the MIC [17] was 0.5 µg/mL (≈ 1.11 µM). The MIC [18] was 0.4 µg/mL (≈ 0.889 µM), the MIC [19] was 0.2 µg/mL (≈ 0.445 µM) and the “MIC S. epidermidis 5253” value [20] was 12.8 µg/mL (≈ 28.5 µM). It also gave an MIC [20] of 12.8 to 25.6 µg/mL (≈ 28.5 to 56.9 µM), an MIC [21] of 0.2 µg/mL (≈ 0.445 µM) and an MIC [22] of 0.8 µg/mL (≈ 1.78 µM). The “MIC S. aureus T5591” value ([23]; 18 h) was 0.2 µg/mL (≈ 0.445 µM), the MIC [23] was 0.1 to 0.2 µg/mL (≈ 0.222 to 0.445 µM) and the IC50 [24] was 108 ± 11 µM. For the same compound, the MIC [25] was > 25.6 µg/mL, the IC50 [34] was 12 µM and the MIC [26] was 12.8 µg/mL (≈ 28.5 µM). For the same compound, the “fold more effective than CP” value [27] was 5 fold, the “times more powerful than CP” value ([27]; S. aureus T5595 and T5591) was 1.25–2.5 times and the MIC [27] was 0.1 to 0.8 µg/mL (≈ 0.222 to 1.78 µM). For the same compound, the MIC [28] was > 25.6 µg/mL, the “MIC S. aureus T5595” value ([29]; 18 h) was 0.2 µg/mL (≈ 0.445 µM) and the MIC [29] was 0.1 to 0.2 µg/mL (≈ 0.222 to 0.445 µM). For the same compound, the MIC [30] was 1.6 µg/mL (≈ 3.56 µM) and the MIC [31] was 0.2 µg/mL (≈ 0.445 µM).
